Experimental data taken from paper PMC10068823 (European Journal of Medicinal Chemistry, 2023).

What was measured:
HCoV 229E [1] = conditions: BEAS2B cell
HCoV 229E [2] = test: organism not typed; conditions: BEAS-2B, read-out: EC50 HCoV229E
SARS-CoV-2 3CL^pro [3] = biological target: T1, SARS-CoV-2 3CL^pro (Severe acute respiratory syndrome coronavirus 2, UniProt P0DTD1); format: biochemical
SARS-CoV-2 3CL^pro [4] = biological target: T1, SARS-CoV-2 3CL^pro; format: biochemical; remark: listed apart in the source

Row | Compound | improvement in antiviral potency when co-dosed with CP-100356 (SARS-CoV-2) | SI (CC50/EC50) MERS (MERS-CoV) | SI (CC50/EC50) HCoV229E (HCoV 229E [1]) | EC50 (HCoV 229E [2]) [µM] | SARS-CoV-2 3CL^pro enzyme inhibition at fixed concentration (SARS-CoV-2 3CL^pro [4]) | other results
1 | CC(C)C[C@H](NC(=O)[C@@H](NC(=O)OC(C)(C)C)C(C)C)C(=O)N[C@H](C=O)C[C@@H]1CCNC1=O [Compound 5, tert-Butyl ((S)-3-methyl-1-(((S)-4-methyl-1-oxo-1-(((S)-1-oxo-3-((S)-2-oxopyrrolidin-3-yl)propan-2-yl)amino)pentan-2-yl)amino)-1-oxobutan-2-yl)carbamate] | more than 3 fold | 1.58 ± 0.91 (>63) | > 30.1 |  |  | 
2 | CC(C)[C@H](NC(=O)OC(C)(C)C)C(=O)N1CCC[C@H]1C(=O)N[C@H](C=O)C[C@@H]1CCNC1=O [Compound 6, tert-Butyl ((S)-3-methyl-1-oxo-1-((S)-2-(((S)-1-oxo-3-((S)-2-oxopyrrolidin-3-yl)propan-2-yl)carbamoyl)pyrrolidin-1-yl)butan-2-yl)carbamate] |  | 4.56 ± 1.39 (>22) | < 10 | > 17.9 |  | 
3 | CO[C@H]1C[C@@H](C(=O)N[C@H](C=O)C[C@@H]2CCNC2=O)N(C(=O)[C@@H](NC(=O)OC(C)(C)C)C(C)C)C1 [Compound 8, tert-Butyl ((S)-1-((2S,4S)-4-methoxy-2-(((S)-1-oxo-3-((S)-2-oxopyrrolidin-3-yl)propan-2-yl)carbamoyl)pyrrolidin-1-yl)-3-methyl-1-oxobutan-2-yl)carbamate] |  | 0.58 ± 0.34 (>172) | < 10 | > 3.6 |  | increase in potency on MERS respect to SARS-CoV-2 in the CPE cellular assay (MERS-CoV): 15 fold
4 | CC(C)[C@H](NC(=O)OC(C)(C)C)C(=O)N1C[C@H](OC(C)(C)C)C[C@H]1C(=O)N[C@H](C=O)C[C@@H]1CCNC1=O [Compound 11, tert-Butyl ((S)-1-((2S,4R)-4-(tert-butoxy)-2-(((S)-1-oxo-3-((S)-2-oxopyrrolidin-3-yl)propan-2-yl)carbamoyl)pyrrolidin-1-yl)-3-methyl-1-oxobutan-2-yl)carbamate] | more than 3 fold | 33.56 ± 6.8 (>3) | < 10 | > 48.2 |  | 
5 | CC(C)[C@H](NC(=O)OC(C)(C)C)C(=O)N1C[C@@H]2CCC[C@@H]2[C@H]1C(=O)N[C@H](C=O)C[C@@H]1CCNC1=O [Compound 12, tert-Butyl ((S)-3-methyl-1-oxo-1-((1S,3aR,6aS)-1-(((S)-1-oxo-3-((S)-2-oxopyrrolidin-3-yl)propan-2-yl)carbamoyl)hexahydrocyclopenta[c]pyrrol-2(1H)-yl)butan-2-yl)carbamate] |  |  |  |  |  | mechanism of action from enzymatic progression curve (SARS-CoV-2 3CL^pro [3]): slow covalent binding inhibitor; lower activity against MERS compared to SARS-CoV-2 (MERS-CoV): 20 fold; cytotoxicity in Calu-3 cells (Calu-3 cells): without sign of cytotoxicity
6 | CC(C)[C@H](NC(=O)OC(C)(C)C)C(=O)N1CCCC[C@H]1C(=O)N[C@H](C=O)C[C@@H]1CCNC1=O [Compound 13, tert-Butyl ((S)-3-methyl-1-oxo-1-((S)-2-(((S)-1-oxo-3-((S)-2-oxopyrrolidin-3-yl)propan-2-yl)carbamoyl)piperidin-1-yl)butan-2-yl)carbamate] | more than 3 fold |  |  |  |  | 
7 | C[C@H](OC(C)(C)C)[C@H](NC(=O)OC(C)(C)C)C(=O)N1CCC[C@H]1C(=O)N[C@H](C=O)C[C@@H]1CCNC1=O [Compound 14, tert-Butyl ((2S,3S)-3-(tert-butoxy)-1-oxo-1-((S)-2-(((S)-1-oxo-3-((S)-2-oxopyrrolidin-3-yl)propan-2-yl)carbamoyl)pyrrolidin-1-yl)butan-2-yl)carbamate] | more than 3 fold |  |  |  |  | 
8 | COC(=O)[C@H](C[C@@H]1CCNC1=O)NC(=O)[C@@H]1CCCN1C(=O)[C@@H](NC(=O)OC(C)(C)C)C(C)C [Compound 25g, Methyl (S)-2-((S)-1-((tert-butoxycarbonyl)-L-valyl)pyrrolidine-2-carboxamido)-3-((S)-2-oxopyrrolidin-3-yl)propanoate] |  |  |  |  | inactive | 
9 | CC(C)[C@H](NC(=O)OC(C)(C)C)C(=O)N1CCC[C@H]1C(=O)N[C@@H](C[C@@H]1CCNC1=O)C(=O)O [Compound 26, (S)-2-((S)-1-((tert-butoxycarbonyl)-L-valyl)pyrrolidine-2-carboxamido)-3-((S)-2-oxopyrrolidin-3-yl)propanoic acid] |  |  |  |  | inactive | 
10 | CC(C)[C@H](NC(=O)OC(C)(C)C)C(=O)N1CCC[C@H]1C(=O)N[C@H](CO)C[C@@H]1CCNC1=O [Compound 27g, tert-Butyl ((S)-1-((S)-2-(((S)-1-hydroxy-3-((S)-2-oxopyrrolidin-3-yl)propan-2-yl)carbamoyl)pyrrolidin-1-yl)-3-methyl-1-oxobutan-2-yl)carbamate] |  |  |  |  | inactive | 
